Measurements reported in patent US10189859B2, “Derivatives of 6-(2,3-dichlorophenyl)-1,2,4-triazin-5-amine” (Nektar Therapeutics, priority 2013, dated 2019).
Several values for one entry are separate records, joined by “and”; a condition that tells them apart may be missing. Equal entries are not always repeated. Where two headings read alike, the source gives them in different places.

Assays:
[1] = Pharmacokinetics after intravenous or oral dosing, plasma LC/MS/MS; format: in vivo; conditions: fasted male Sprague Dawley rats
Experimental: Fasted, male Sprague Dawley rats were dosed intravenously or orally. Blood samples were collected at pre-determined time points and plasma was separated. Test article concentrations were determined in plasma by a LC/MS/MS method. Non compartmental analysis was performed to estimate the area under the plasma concentration vs. time curve (AUC). Clearance parameters (CL), bioavailabilities (F) and half-lives were calculated.

AFP model = test: AFP animal model; format: in vivo; conditions: AFP, Ph 2, timepoint 0.25 h
From the text: (§1) The efficacy of the compounds when evaluated in additional well-known animal models, AFP, RR, and hyperalgesia, was also explored.

RR model = test: RR animal model; format: in vivo
From the text: as §1

Na+ channels = test: Blockage of Na+ channels, whole-cell patch clamp, isolated dorsal root ganglion cells; format: cell-based, rat
Experimental: Currents are measured using the whole-cell variant of the patch clamp method. INa is elicited by a pulse to −20 mV from a holding potential of −120 mV or −70 mV to measure blockade at the inactivated state (pulse duration of 40 ms), Peak inward current is measured for INa. Pacing rates of […] are examined. Increasing concentrations of test compounds are added to the cells in a cumulative manner to generate a concentration-response relationship which is utilized to calculate the IC50.

[2] = target: Nav1.7 sodium channels (human SCN9A gene) (Homo sapiens (Human), UniProt Q15858); test: Automated patch clamp (IonWorks Barracuda) of Nav1.7 stably expressed in CHO cells; format: cell-based
Chain of Nav1.7 sodium channels (human SCN9A gene) (Q15858 whole entry): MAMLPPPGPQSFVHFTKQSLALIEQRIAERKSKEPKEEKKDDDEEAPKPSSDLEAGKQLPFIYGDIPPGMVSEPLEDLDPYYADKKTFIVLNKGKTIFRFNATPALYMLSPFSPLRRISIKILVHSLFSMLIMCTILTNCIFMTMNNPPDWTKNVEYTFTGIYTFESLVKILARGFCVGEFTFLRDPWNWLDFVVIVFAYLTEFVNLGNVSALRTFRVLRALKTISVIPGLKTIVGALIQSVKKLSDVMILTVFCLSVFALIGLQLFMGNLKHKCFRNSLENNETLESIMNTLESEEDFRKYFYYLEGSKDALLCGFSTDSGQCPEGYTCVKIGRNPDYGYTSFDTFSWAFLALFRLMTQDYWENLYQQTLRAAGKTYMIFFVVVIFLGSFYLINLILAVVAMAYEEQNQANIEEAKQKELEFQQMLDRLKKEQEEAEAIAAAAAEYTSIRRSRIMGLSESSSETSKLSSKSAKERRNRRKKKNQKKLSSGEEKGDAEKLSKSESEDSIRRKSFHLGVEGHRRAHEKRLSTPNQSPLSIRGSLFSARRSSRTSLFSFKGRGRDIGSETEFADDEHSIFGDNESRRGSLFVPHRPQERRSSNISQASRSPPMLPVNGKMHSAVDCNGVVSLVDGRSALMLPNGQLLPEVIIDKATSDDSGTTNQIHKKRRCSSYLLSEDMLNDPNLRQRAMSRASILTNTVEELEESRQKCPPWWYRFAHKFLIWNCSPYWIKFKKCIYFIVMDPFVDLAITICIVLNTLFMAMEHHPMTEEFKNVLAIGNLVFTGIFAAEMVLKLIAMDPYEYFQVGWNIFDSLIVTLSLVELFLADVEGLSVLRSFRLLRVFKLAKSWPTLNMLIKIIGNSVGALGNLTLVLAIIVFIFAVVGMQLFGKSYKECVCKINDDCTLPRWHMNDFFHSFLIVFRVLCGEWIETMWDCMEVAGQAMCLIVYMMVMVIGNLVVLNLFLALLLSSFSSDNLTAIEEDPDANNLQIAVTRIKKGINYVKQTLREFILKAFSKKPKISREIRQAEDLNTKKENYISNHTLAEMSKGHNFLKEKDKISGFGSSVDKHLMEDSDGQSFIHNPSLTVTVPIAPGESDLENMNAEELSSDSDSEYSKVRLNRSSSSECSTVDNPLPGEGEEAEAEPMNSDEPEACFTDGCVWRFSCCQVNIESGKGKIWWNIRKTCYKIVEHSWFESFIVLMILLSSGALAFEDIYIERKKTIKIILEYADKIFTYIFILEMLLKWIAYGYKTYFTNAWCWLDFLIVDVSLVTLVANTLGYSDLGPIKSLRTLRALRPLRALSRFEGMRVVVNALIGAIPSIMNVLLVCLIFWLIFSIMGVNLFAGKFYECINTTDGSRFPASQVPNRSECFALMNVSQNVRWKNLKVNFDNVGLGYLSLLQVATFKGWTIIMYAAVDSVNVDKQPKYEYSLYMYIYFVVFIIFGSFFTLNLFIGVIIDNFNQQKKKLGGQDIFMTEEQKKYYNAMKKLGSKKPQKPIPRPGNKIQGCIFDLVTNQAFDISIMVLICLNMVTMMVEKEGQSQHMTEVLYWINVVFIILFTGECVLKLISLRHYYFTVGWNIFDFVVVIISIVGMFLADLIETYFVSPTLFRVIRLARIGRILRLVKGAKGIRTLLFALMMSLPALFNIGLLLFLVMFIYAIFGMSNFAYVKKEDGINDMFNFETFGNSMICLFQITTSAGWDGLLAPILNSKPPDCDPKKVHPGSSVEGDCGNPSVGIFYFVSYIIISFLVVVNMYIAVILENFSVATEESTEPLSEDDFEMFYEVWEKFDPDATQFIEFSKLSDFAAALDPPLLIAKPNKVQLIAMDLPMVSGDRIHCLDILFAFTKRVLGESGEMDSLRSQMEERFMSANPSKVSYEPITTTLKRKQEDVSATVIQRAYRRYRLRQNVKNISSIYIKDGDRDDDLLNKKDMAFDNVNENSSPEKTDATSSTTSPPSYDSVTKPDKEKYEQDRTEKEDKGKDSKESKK
Procedure, shortened: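 Whole-cell currents from CHO cells, holding −90 mV. Tonic block: 200 ms pre-pulse to −120 mV, step to 0 mV. Inactivated-state block: 20 ms at −100 mV then 20 ms at 0 mV. Percent block of peak inward Na+ current versus vehicle across concentrations gave IC50.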

Compound | exposure after oral dosing (qualitative ranking) [1] | MED (mg/kg) (AFP model; minimum effective dose) | ED50 (AFP model; read-out: ED50) | ED50 (RR model; 0.5 h) | ED50 (RR model; 1 h) | MED (RR model; timepoints 0.5, 1 h, minimum effective dose) | pharmacokinetics (qualitative ranking of the compounds tested) [1] | IC50 (Na+ channels; Vh −70 mV (inactivated state), pacing 0.1 Hz, read-out: IC50 (μM) 0.1 Hz) | IC50 (Na+ channels; Vh −70 mV (inactivated state), pacing 3 Hz, read-out: IC50 (μM) 3 Hz) | IC50 (Na+ channels; Vh −70 mV (inactivated state), pacing 10 Hz, read-out: IC50 (μM) 10 Hz) | IC50 (Na+ channels; Vh −120 mV, pacing 0.1 Hz, read-out: IC50 (μM) 0.1 Hz) | IC50 (Na+ channels; Vh −120 mV, pacing 3 Hz, read-out: IC50 (μM) 3 Hz) | IC50 (Na+ channels; Vh −120 mV, pacing 10 Hz, read-out: IC50 (μM) 10 Hz) | IC50 ([2]; inactivated state block, CHO cells, read-out: Inactivated state IC50) | IC50 ([2]; read-out: Inactivated state IC50) | IC50 ([2]; read-out: Tonic state IC50)
Nc1nc(NCCOCCOC(F)(F)F)nnc1-c1cccc(Cl)c1Cl [Compound 45, 6-(2,3-Dichlorophenyl)-N^3-(2-(2-(trifluoromethoxy)ethoxy)ethyl)-1,2,4-triazine-3,5-diamine] | best exposure after oral dosing | 30 (Ph 2) mg/kg | 46.8 mg/kg | 21 mg/kg | 18.9 mg/kg | 30 mg/kg | – | – | – | – | – | – | – | – | – | –
COC[C@@H](O)CN1CCN(c2nnc(-c3cccc(Cl)c3Cl)c(N)n2)CC1 [Compound 97, (S)-1-(4-(5-amino-6-(2,3-dichlorophenyl)-1,2,4-triazin-3-yl)piperazin-1-yl)-3-methoxypropan-2-ol] | best exposure after oral dosing | – | – | – | – | – | most favorable pharmacokinetics | 39.5 µM | 21.5 µM | 16.5 µM | > 100 µM | > 100 µM | 74.4 µM | 90.5 µM | < 50 µM and 82.2 µM | > 200 µM
